Results reported in patent US20230416191A1, “Compounds, Compositions and Methods for the Treatment of CREB-dependent Diseases” (Sereno Sciences, Inc., priority 2022, published 2023).
pIC50: −log10 of the molar value. Read-outs that look alike come from different tables or passages of the source. Values belong to the compound of their own block, whether it stands above or below them.

What was measured:
[1] = tested on: CREB-mediated gene transcription; experiment: Inhibition of CREB-mediated gene transcription (CRE Renilla luciferase reporter, forskolin stimulated); assay type: cell-based; settings: 5 h, HEK293T CRE luciferase reporter cells, forskolin 10 uM
Experimental: The compounds were tested for their inhibition of CREB-mediated gene transcription according to the method described in Xie et al. J. Med. Chem. 2015, 58, 5075-5087. Generally, HEK293T cell transfected with luciferase reporter cell lines under CRE control were obtained from commercial sources. The cells were plated into 96-well plates (1-[…] cells/well). The cells were allowed to attach to the bottom of the wells overnight, when compounds of different concentrations were added to the cells. Forskolin (10 uM, LC Laboratories, Woburn, Mass.) was added 30 min after the addition of the compounds. The cells were then incubated at 37° C. for 5 h. The media in the wells were removed and the cells were then lysed in 30 µl of 1×Renilla luciferase lysis buffer (Promega, Madison, Wis.). To measure Renilla luciferase activity, five uL of the lysate was combined with 30 uI of benzyl-coelenterazine (Nanolight, Pinetop, Ariz.) solution in PBS (pH 7.4, 10 ug/mL). The sample protein concentration was determined by Dye Reagent Concentrate (Bio-Rad, Hercules, Calif). The Renilla luciferase activity was normalized to protein content in each well and expressed as relative luciferase unit/ug protein (RLU/ug protein). The IC50 was derived from non-linear regression analysis of the RLU/ug protein-concentration curve.

[2] = tested on: KG-1; experiment: Cytotoxicity assay (Cell-titer-Glow, 72 hr); assay type: cell-based; settings: Homo sapiens; leukemia cell line KG-1, 72hr; read-out: IC50 for inhibition of KG-1
Experimental: (§1) The cells were obtained from ATCC, IMDM was obtained from Lonza, and FBS was obtained from Hyclone. Cell-titer-Glow for cytotoxicity was from Promega. Sterile 96-well tissue culture plates were from Corning. Different concentrations of the test compounds were tested in triplicate wells of either 96-well or 384-well tissue culture plates. The screening was repeated two additional times. The cells from ATCC were thawed, washed once with complete media, and cultured in T75 flask in a 37C CO2 incubator. Cell density was maintained between 5×10 5 to 1×10^6 cells/ml. Compounds were individually weighed and dissolved in DMSO to obtain 10 mM solutions of each and stored at −20° C. until used. To select concentrations of the compounds for cytotoxicity, all the compounds were initially tested at 100 μM and 30 μM in a 48 hr cytotoxicity assay. Two microliter of each concentration of the test compounds were transferred into triplicate wells of a 96-well tissue culture plate. Into each well 100 μof the cell suspension was added, the plate was lidded and incubated at 37° C. in a 5% CO2 incubator maintained at 95% humidity After 72hr of incubation, the plate was removed from the incubator, and the cell viability was determined using Cell-titer-glow reagent as per the protocol described in the kit manual. Signals from the plate was measured using Victor-II plate reader. The raw data from the plate reader were exported to Excel. For each concentration of the drug tested the average signal and SD from the triplicate wells, as well as the percent cytotoxicity were calculated. The resulting data were exported to Prism-graph-pad, the % cytotoxicity was plotted against log concentration and the resulting curves were fitted using non-linear dose response fit and the resulting IC50 values were extracted.

[3] = tested on: Hep3B; experiment: Cytotoxicity assay (Cell-titer-Glow, 72 hr); assay type: cell-based; settings: Homo sapiens, Hep3B cells, read-out: IC50 for inhibition of Hep3B
Experimental: as §1

[4] = tested on: NaLM6; experiment: Cytotoxicity assay (Cell-titer-Glow, 72 hr); assay type: cell-based; settings: Homo sapiens, NALM-6; leukemia cell line NaLM6, 72hr; read-out: IC50 for inhibition of NaLM6
Experimental: as §1

[5] = tested on: MV-411; experiment: Cytotoxicity assay (Cell-titer-Glow, 72 hr); assay type: cell-based; settings: Homo sapiens, MV4-11; leukemia cell line MV-411, 72hr; read-out: IC50 for inhibition of MV-411
Experimental: as §1

[6] = tested on: A549; experiment: Cytotoxicity assay (Cell-titer-Glow, 72 hr); assay type: cell-based; settings: Homo sapiens, A549 cells, read-out: IC50 for inhibition of A549
Experimental: as §1

[7] = tested on: HL-60; experiment: Cytotoxicity assay (Cell-titer-Glow, 72 hr); assay type: cell-based; settings: Homo sapiens; leukemia cell line HL-60, 72hr; read-out: IC50 for inhibition of HL-60
Experimental: as §1

[8] = tested on: MCF-7; experiment: Cytotoxicity assay (Cell-titer-Glow, 72 hr); assay type: cell-based; settings: Homo sapiens, MCF7; breast cancer line MCF-7, 72hr; read-out: IC50 for inhibition of MCF-7
Experimental: as §1

[9] = tested on: MiaPaCa2; experiment: Cytotoxicity assay (Cell-titer-Glow, 72 hr); assay type: cell-based; settings: Homo sapiens, MIA PaCa-2, MiaPaCa2 cells, read-out: IC50 for inhibition of MiaPaCa2
Experimental: as §1

[10] = tested on: BT-474; experiment: Cytotoxicity assay (Cell-titer-Glow, 72 hr); assay type: cell-based; settings: Homo sapiens; breast cancer line BT-474, 72hr; read-out: IC50 for inhibition of BT-474
Experimental: as §1

[11] = tested on: Hs587T; experiment: Cytotoxicity assay (Cell-titer-Glow, 72 hr); assay type: cell-based; settings: breast cancer line Hs587T, read-out: IC50 for inhibition of Hs587T
Experimental: as §1

[12] = Mouse pharmacokinetics, plasma by LC-MS/MS; assay type: in vivo, mice (C57BL/6); settings: female C57BL/6 mice
Experimental: The compound was formulated in an aqueous solution containing 5% Tween-80, 10% DMSO. Female mice (C57BL/6) were given a single dose of the formulation at 5 mg/kg (IV), 10 mg/kg (IP) and 20 mg/kg (orally). At different time points (0.083, 0.25, 0.5, 1, 2, 4, 8, 24 h) post drug administration, blood was collected and the plasma was prepared. The samples were stored at −80° C. until analysis. The drug concentration in the plasma was analyzed by LC-MS/MS.

[13] = tested on: HL-60 cells; experiment: AML xenograft model; assay type: in vivo; settings: HL-60 xenograft in NSG mice, 2 mg/kg IV daily
Experimental: For AML xenograft mouse experiments, HL-60 cells (2×10^6) expressing firefly luciferase and GFP are injected through the tail vein into 4-6 week old NOD. Cg-Prkdc^acid Il2rg^tmlWjlSzJ (NSG) mice. Mice are then treated with 2 mg/kg SRS-1006 or 10% DMSO, injected intravenously by tail vein daily seven days after AML cell injection, until death or an endpoint is reached (moribundity) in accordance with the animal care institutional guidelines. Leukemia progression in mice at the indicated time points is monitored using an in vivo IVIS 100 bioluminescenceoptical imaging system (Xenogen Corporation). D-Luciferin (Promega) dissolved in sterile phosphate-buffered saline was injected intraperitoneally at a dose of […], 15 minutes before measuring the luminescent signal. General anesthesia is induced with […] and continued during the procedure using a nose cone. Analysis is performed on Living Image In Vivo imaging software (Perkin-Elmer). Bone marrow is aspirated from bone marrow cavities, and GFP+cells is sorted using the FACSCalibur flow cytometer (BD Biosciences).

[14] = in vivo; cited from earlier work

pIC50 ([1]; Homo sapiens, HEK-293T): 5.81
Structure (SMILES): NCCCOc1cc2ccccc2cc1C(=O)NCCOc1cc2ccccc2cc1C(=O)Nc1ccc(Cl)cc1Cl [SRS-1005]

bioavailability ([12]; single dose 5 mg/kg IV, read-out: IV bioavailability): 100% | bioavailability ([12]; single dose 10 mg/kg IP, read-out: IP bioavailability): 100% | bioavailability ([12]; po, single dose 20 mg/kg orally, read-out: oral bioavailability): 67% | pIC50 ([1]; Homo sapiens, HEK-293T): 6.74
Structure (SMILES): Cl.NCCCOc1cc2ccccc2cc1C(=O)NCCOc1cc2ccccc2cc1C(=O)Nc1ccccc1F [SRS-1006]
pIC50 [2]: 5.47 | pIC50 [3]: 5.84 | pIC50 [4]: 6.01 | pIC50 [5]: 6.00 | pIC50 [6]: 5.83 | pIC50 [7]: 6.19 | pIC50 [8]: 5.83 | pIC50 [9]: 5.77 | pIC50 [10]: 5.28 | pIC50 [11]: 5.43 | median survival in Kaplan-Meier analysis [13]: significantly prolonged | disease burden by bioluminescence imaging ([13]; compared to control): less disease burden

pIC50 [1]: 6.39 | pIC50 ([1]; Homo sapiens, HEK-293T): 6.35
Structure (SMILES): NCCCOc1cc2ccccc2cc1C(=O)NCCOc1cc2ccccc2cc1C(=O)Nc1c(F)cccc1F [SRS-1007]

pIC50 ([1]; Homo sapiens, HEK-293T): 6.39
Structure (SMILES): NCCCOc1cc2ccccc2cc1C(=O)NCCOc1cc2ccccc2cc1C(=O)Nc1ccc(F)cc1 [SRS-1003]

pIC50 ([1]; Homo sapiens, HEK-293T): 5.90
Structure (SMILES): NCCCOc1cc2ccccc2cc1C(=O)NCCOc1cc2ccccc2cc1C(=O)Nc1ccccc1 [SRS-1001]

Structure (SMILES): O=C(Nc1ccc(Cl)cc1)c1cc2ccccc2cc1O [napththol AS-E, naphthol AS-E]
bioavailability [14]: low

pIC50 ([1]; Homo sapiens, HEK-293T): 5.92
Structure (SMILES): N#Cc1ccc(NC(=O)c2cc3ccccc3cc2OCCNC(=O)c2cc3ccccc3cc2OCCCN)cc1 [SRS-1004]

pIC50 ([1]; Homo sapiens, HEK-293T): 5.81
Structure (SMILES): NCCCOc1cc2ccccc2cc1C(=O)NCCOc1cc2ccccc2cc1C(=O)Nc1ccc(Cl)cc1 [SRS-1002]
